Measurements from US20250223307A1, “MDM2/MDMX DOUBLE-TARGET INHIBITOR COMPOUND, PRODRUG, PHARMACEUTICAL COMPOSITION, AND PREPARATION METHOD THEREFOR AND USE THEREOF” (GLOBAL HEALTH DRUG DISCOVERY INSTITUTE, priority 2022, published 2025).

Experiments:
MDM2 = MDM2 (Homo sapiens, UniProt Q00987); assay: HTRF test: inhibition of MDM2-p53 protein binding
[1] = tested on: Blood cancer cells RS4; 11; assay: CellTiter Glo test: growth inhibition of cells; assay type: cell-based; settings: Homo sapiens, 11 cells, 72 h, cell viability
Method: Test of Candidate Compounds on Growth Inhibition of Cells Determined by CellTiter Glo
Blood cancer cells RS4; 11 were inoculated into the 96-well cell culture plate through Multidrop 3000 cells per well, with a volume of 100 μL. The final compound concentration ranged from 50 μM to 0.01 μM at 9 concentration gradients and the DMSO final concentration was 0.1%. The cells and compounds were co-incubated in a cell incubator at 37° C. for 72 h, a CellTiter-Glo Luminescent Cell Viability Assay reagent was added 100 μL/well, the cells and compound were uniformly mixed and incubated at room temperature for 10 min, and Envision reading was performed. A sample treated with 50 μM of a positive compound was taken as a positive control and a sample treated with 100 nL of DMSO was taken as a negative control.

MDMX = molecular target: T1, MDMX (Homo sapiens, UniProt O15151); assay: HTRF test: inhibition of MDMX-p53 protein binding
T1 sequence (O15151 2-134): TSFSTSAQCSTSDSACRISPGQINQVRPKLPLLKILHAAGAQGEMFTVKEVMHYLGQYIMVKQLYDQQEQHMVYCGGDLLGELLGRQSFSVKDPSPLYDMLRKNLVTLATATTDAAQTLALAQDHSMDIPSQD

MDM2, sequence (Q00987 2-138): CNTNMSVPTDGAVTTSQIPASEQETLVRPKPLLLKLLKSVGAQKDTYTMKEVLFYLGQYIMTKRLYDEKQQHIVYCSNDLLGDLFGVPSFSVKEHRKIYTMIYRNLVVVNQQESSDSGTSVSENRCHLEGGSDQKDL

SMILES	IC50 (MDM2)	IC50 [1]	IC50 (MDMX)
N#Cc1cccc(CN2C(=O)N/C(=C\c3c[nH]c4c(F)c(Cl)ccc34)C2=O)c1 [Compound 18, (Z)-3-((4-((6-chloro-7-fluoro-1H-indol-3-yl)methylene)-2,5-dioxoimidazolidin-1-yl)methyl)benzonitrile]	10 to 100 nM	≤ 1000 nM	10 to 100 nM
Cc1c(Cl)ccc2c(/C=C3\NC(=O)N(C(CO)c4ccc(Cl)c(F)c4)C3=O)c[nH]c12 (stereo not drawn) [Compound 78, (Z)-3-(1-(4-chloro-3-fluorophenyl)-2-hydroxyethyl)-5-((6-chloro-7-methyl-1H-indol-3-yl)methylene)imidazolidine-2,4-dione]	10 to 100 nM	≤ 1000 nM	10 to 100 nM
O=C1N/C(=C\c2c[nH]c3c(F)c(Cl)ccc23)C(=O)N1C(CO)c1cc(F)c(Cl)c(F)c1 (stereo not drawn) [Compound 107, (Z)-3-(1-(4-chloro-3,5-difluorophenyl)-2-hydroxyethyl)-5-((6-chloro-7-fluoro-1H-indol-3-yl)methylene)imidazolidine-2,4-dione]	10 to 100 nM	≤ 1000 nM	10 to 100 nM
N#Cc1ccc([C@@H](CO)N2C(=O)N/C(=C\c3c[nH]c4cc(Cl)ccc34)C2=O)cc1 [Compound 50, (S,Z)-4-(1-(4-((6-chloro-1H-indol-3-yl)methylene)-2,5-dioxoimidazolidin-1-yl)-2-hydroxyethyl)benzonitrile]	10 to 100 nM	≤ 1000 nM	> 100 nM
O=C1N/C(=C\c2c[nH]c3c(F)c(Cl)ccc23)C(=O)N1Cc1cc(F)c(Cl)c(F)c1 [Compound 106, (Z)-3-(4-chloro-3,5-difluorobenzyl)-5-((6-chloro-7-fluoro-1H-indol-3-yl)methylene)imidazolidine-2,4-dione]	10 to 100 nM	≤ 1000 nM	10 to 100 nM
O=C1N/C(=C\c2c[nH]c3c(F)c(Cl)ccc23)C(=O)N1C(CO)c1ccc(Cl)cc1F (stereo not drawn) [Compound 99, (Z)-3-(1-(4-chloro-2-fluorophenyl)-2-hydroxyethyl)-5-((6-chloro-7-fluoro-1H-indol-3-yl)methylene)imidazolidine-2,4-dione]	10 to 100 nM	≤ 1000 nM	10 to 100 nM
O=C1N/C(=C\c2c[nH]c3c(F)c(Cl)ccc23)C(=O)N1Cc1ccc(Cl)c(F)c1F [Compound 104, (Z)-3-(4-chloro-2,3-difluorobenzyl)-5-((6-chloro-7-fluoro-1H-indol-3-yl)methylene)imidazolidine-2,4-dione]	10 to 100 nM	≤ 1000 nM	10 to 100 nM
CSc1c(Cl)ccc2c(/C=C3\NC(=O)N(Cc4ccc(F)c(F)c4)C3=O)c[nH]c12 [Compound 9]	10 to 100 nM	> 10000 nM	10 to 100 nM
Cc1c(Cl)ccc2c(/C=C3\NC(=O)N(C(C(=O)NCCO)c4ccc(Cl)cc4)C3=O)c[nH]c12 (stereo not drawn) [Compound 48, (Z)-2-(4-((6-chloro-7-methyl-1H-indol-3-yl)methylene)-2,5-dioxoimidazolidin-1-yl)-2-(4-chlorophenyl)-N-(2-hydroxyethyl)acetamide]	< 10 nM	≤ 1000 nM	< 10 nM
O=C1N/C(=C\c2c[nH]c3cc(Cl)ccc23)C(=O)N1[C@H](CO)c1ccc(F)c(F)c1 [Compound 53, (S,Z)-5-((6-chloro-1H-indol-3-yl)methylene)-3-(1-(3,4-difluorophenyl)-2-hydroxyethyl)imidazolidine-2,4-dione]	< 10 nM	1000 to 10000 nM	< 10 nM
N#Cc1ccc(CN2C(=O)N/C(=C\c3c[nH]c4cc(Cl)ccc34)C2=O)cc1F [Compound 20, (Z)-4-((4-((6-chloro-1H-indol-3-yl)methylene)-2,5-dioxoimidazolidin-1-yl)methyl)-2-fluorobenzonitrile]	10 to 100 nM	≤ 1000 nM	10 to 100 nM
Cc1c(Cl)ccc2c(/C=C3\NC(=O)N(C(C(=O)NC(CO)(CO)CO)c4ccc(F)c(F)c4)C3=O)c[nH]c12 (stereo not drawn) [Compound 30, (Z)-2-(4-((6-chloro-7-methyl-1H-indol-3-yl)methylene)-2,5-dioxoimidazolidin-1-yl)-2-(3,4-difluorophenyl)-N-(1,3-dyhydroxl-2-(hydroxymethyl)-2-propyl)acetamide]	< 10 nM	≤ 1000 nM	< 10 nM
N#Cc1ccc(C(CO)N2C(=O)N/C(=C\c3c[nH]c4c(F)c(Cl)ccc34)C2=O)cc1 (stereo not drawn) [Compound 85, (Z)-4-(1-(4-((6-chloro-7-fluoro-1H-indol-3-yl)methylene)-2,5-dioxoimidazolidin-1-yl)-2-hydroxyethyl)benzonitrile]	< 10 nM	≤ 1000 nM	< 10 nM

The remaining lines, values ahead:

IC50 (MDM2)	IC50 [1]	IC50 (MDMX)	SMILES
< 10 nM	≤ 1000 nM	< 10 nM	Cc1c(Cl)ccc2c(/C=C3\NC(=O)N(Cc4ccc(C#N)cc4)C3=O)c[nH]c12 [Compound 19, (Z)-4-((4-((6-chloro-7-methyl-1H-indol-3-yl)methylene)-2,5-dioxoimidazolidin-1-yl)methyl)benzonitrile]
< 10 nM	≤ 1000 nM	< 10 nM	O=C(NCCO)C(c1ccc(F)c(F)c1)N1C(=O)N/C(=C\c2c[nH]c3c(F)c(Cl)ccc23)C1=O (stereo not drawn) [Compound 72, (Z)-2-(4-((6-chloro-7-fluoro-1H-indol-3-yl)methylene)-2,5-dioxoimidazolidin-1-yl)-2-(3,4-difluorophenyl)-N-(2-hydroxyethyl)acetamide]
< 10 nM	1000 to 10000 nM	< 10 nM	N#Cc1ccc(C(C(=O)NC(CO)CO)N2C(=O)N/C(=C\c3c[nH]c4c(F)c(Cl)ccc34)C2=O)cc1 (stereo not drawn) [Compound 29, (Z)-2-(4-((6-chloro-7-fluoro-1H-indol-3-yl)methylene)-2,5-dioxoimidazolidin-1-yl)-2-(4-cyanophenyl)-N-(1,3-dihydroxypropan-2-yl)acetamide]
< 10 nM	≤ 1000 nM	< 10 nM	Cc1c(Cl)ccc2c(/C=C3\NC(=O)N([C@@H](CO)c4ccc(C#N)cc4)C3=O)c[nH]c12 [Compound 96, (R,Z)-4-(1-(4-((6-chloro-7-methyl-1H-indol-3-yl)methylene)-2,5-dioxoimidazolidin-1-yl)-2-hydroxyethyl)benzonitrile]
< 10 nM	≤ 1000 nM	< 10 nM	Cc1c(Cl)ccc2c(/C=C3\NC(=O)N(C(C(=O)NCC45CC(O)(C4)C5)c4ccc(F)c(F)c4)C3=O)c[nH]c12 (stereo not drawn) [Compound 68, (Z)-2-(4-((6-chloro-7-methyl-1H-indol-3-yl)methylene)-2,5-dioxoimidazolidin-1-yl)-2-(3,4-difluorophenyl)-N-((3-hydroxylbicyclo[1.1.1]pentan-1-yl)methyl)acetamide]
< 10 nM	≤ 1000 nM	10 to 100 nM	O=C(NCCO)C(c1ccc(Cl)cc1)N1C(=O)N/C(=C\c2c[nH]c3cc(Cl)ccc23)C1=O (stereo not drawn) [Compound 62, (Z)-2-(4-((6-chloro-1H-indol-3-yl)methylene)-2,5-dioxoimidazolidin-1-yl)-2-(4-chlorophenyl)-N-(2-hydroxyethyl)acetamide]
< 10 nM	≤ 1000 nM	10 to 100 nM	O=C1N/C(=C\c2c[nH]c3c(F)c(Cl)ccc23)C(=O)N1Cc1cc(F)c(Cl)cc1F [Compound 100, (Z)-3-(4-chloro-2,5-difluorobenzyl)-5-((6-chloro-7-fluoro-1H-indol-3-yl)methylene)imidazolidine-2,4-dione]
